The values below come from patent US8394785B2, “Methods for the treatment and amelioration of urticaria” (Jado Technologies GmbH, priority 2005, dated 2013).

Series [1] relates to membrane integrity (lactate dehydrogenase release). Description: Cytotoxicity test / membrane integrity assay (Promega Cytotox-One), lactate dehydrogenase release. The settings on record: for CD50: concentration at which 50% of maximal lactate dehydrogenase release is reached; for cytotoxicity (in words): Table 2.
Series [2] has as its system Rat basophilic leukemia (RBL-2H3) cells. In words: Mast cell degranulation assay (β-hexosaminidase release). The conditions noted are these: for IC50: 1 h, concentration at which 50% of maximal inhibition is reached, RBL-2H3, 60 min incubation with compound, DNP antigen challenge, read-out: ID50 (the source's name); for activity in the mast cell degranulation assay (in words): FIGS. 1 to 8. The class given is cell-based. How it is done: The assay measures release of β-hexosaminidase as a marker of release of various preformed pharmacological agents in response to clustering of the high affinity IgE receptor (FcεRI) by means of multivalent antigen-IgE complexes. Rat basophilic leukemia (RBL-2H3) cells, a commonly used model of mast cell degranulation, are sensitized with anti-DNP specific IgE and challenged with multivalent DNP-BSA. The release of β-hexosaminidase into the supernatant is measured by enzymatic conversion of the fluorogenic substrate 4-methylumbelliferyl-N-acetyl-β-D-glucosaminide to N-acetyl-β-D-glucosamine and highly fluorescent methylumbelliferone and quantified by fluorescence detection in a Tecan Safire™ plate reader.
RBL-2H3 cells obtained from the German Collection of Microorganisms and Cell Cultures (Braunschweig, Germany) were maintained in 70% Minimum Essential Medium with Earle's Salts/20% RPMI 1640/10% heat-inactivated fetal calf serum) supplemented with 2 mM GlutaMAX™-I in 5% CO2 at 37° C. and routinely checked to be free of mycoplasma contamination. Cells grown in 175 cm^2 flasks were split with 0.05% Trypsin/EDTA and resuspended in 20 ml fresh medium. One hundred and 50 μl cell suspension were plated per well into 24 well cluster plates (Costar, Schiphol-Rijk, Netherlands) and cells were used one or two days after plating, respectively.
Two to 24 hours before incubation with test compounds the medium was removed and cells were sensitized with 0.4 μg/ml anti-DNP IgE in fresh medium. Following sensitization, cells were washed once with warm TyB and incubated for 60 min with test compound at a maximum of 100 μM or the highest non-toxic concentration (total vehicle concentration adjusted to 1%) or 1% vehicle in TyB at 37° C. DNP-HSA (0.1 μg/ml final concentration) or buffer alone was added and cells incubated for 15 min at 37° C. Plates were centrifuged at 4° C. for 5 min at 250×g and immediately transferred to ice. Supernatants were collected and the cells lysed with lysis buffer. Hexosaminidase activity in supernatants and lysates was measured by incubating 25 μl aliquots with 100 μl MUG substrate solution in a 96-well plate at 37° C. for 30 min. The reaction was terminated by addition of 150 μl stop solution. Fluorescence was measured in a Tecan Safire™ plate reader at 365 nm excitation and 440 nm emission settings.
Each compound is tested in duplicates in at least three independent experiments. β-hexosaminidase release is calculated after subtraction of unspecific release (release without addition of antigen) using the formula: % degranulation=100×RFU supernatant/RFU lysate
Inhibition of β-hexosaminidase release with respect to control is calculated as
follows: % inhibition=100×(1−(RFU supernatant of compound/RFU supernatant of control))

The subject of series [3] is membrane integrity (lactate dehydrogenase release).
[4] abbreviates: Rattus norvegicus, RBL-2H3, read-out: maximum inhibition (concentration used).
The mark [5] stands for this setting: Rattus norvegicus, RBL-2H3, at or 25 μM, read-out: inhibition of degranulation.
Setting [6] is: Rattus norvegicus, RBL-2H3, 25 μM, read-out: maximum inhibition (concentration used).

“Also recorded” adds a separate entry of the source. Where a name gives a salt, the structure may show the parent alone. Read-outs that look alike come from different tables or passages of the source.

For `CCCCCCCCCCCCCCCCOC[C@H](COP(=O)([O-])OCC[N+](C)(C)C)OC` [Compound 1, 2-O-methyl PAF C-16], the CD50 in series [1] came out at 48.2 µM. The IC50 in series [2] (Rattus norvegicus) is 2.9 µM. In series [2] (setting [4]), the inhibition at 10 µM is 89%. Further, the inhibition at 25 µM in series [2] (setting [5]) is over 75%.

In series [1], `CCCCCCCCCCCCCCCCOC[C@H](COP(=O)([O-])OCC[N+](C)(C)C)OCC` [Compound 2, 2-O-ethyl PAF C-16] showed a CD50 of 57.2 µM. Besides, the IC50 in series [2] (Rattus norvegicus) came to 3 µM. In series [2] (setting [4]), the inhibition at 10 µM was determined as 86%. In series [2] (setting [5]), the inhibition at 25 µM is over 75%.

Take `CCCCCCCCCCCCCCCCSCC(COC)COP(=O)([O-])OCC[N+](C)(C)C` (centres unmarked) [Compound 4, 1-hexadecylmercapto-2-methoxymethyl-3-propyl phosphoric acid monocholine ester, reference compound]: the IC50 in series [2] (Rattus norvegicus) came out at 4.8 µM. Moreover, the results for the inhibition at 25 µM in series [2] (setting [6]) and in series [2] (setting [5]) were 84% and over 75%, respectively.

`CCCCCCCCCCCCCCCCCCOCC(COP(=O)([O-])OCC[N+](C)(C)C)OC` (centres unmarked) [Compound 5, edelfosine, reference compound]: in series [1], the “cytotoxicity (in words)” value is reported as “higher cytotoxicity” and the CD50 came out at 59.0 µM. Further, in series [2] (Rattus norvegicus), the IC50 stood at 6.2 µM. The inhibition at 25 µM in series [2] (setting [6]) was determined as 79%. Also, in series [2] (setting [5]), the inhibition at 25 µM was over 75%.

In series [1], `C/C=C/C(=O)O[C@H](COCCCCCCCCCCCCCCCC)COP(=O)([O-])OCCCCCC[N+](C)(C)C` [Compound 7, butenoyl PAF C-16] registered a CD50 of 79.6 µM. Further, the IC50 in series [2] (Rattus norvegicus) turned out to be 11 µM. In addition, in series [2] (setting [6]), the inhibition at 25 µM turned out to be 69%.

For the compound `CCCCCCCCCCCCCCCCOC[C@H](COP(=O)([O-])OCC[N+]1(C)CCCC1)OC(C)=O` [Compound 8, pyrrolidino PAF C-16], the CD50 in series [1] was 50.2 µM. For the same compound, the IC50 in series [2] (Rattus norvegicus) turned out to be 13.7 µM. For the same compound, the inhibition at 25 µM in series [2] (setting [6]) is 53%.

For `CCCCCCCCCCCCCCCCCCOP(=O)([O-])OC1CC[N+](C)(C)CC1` [Compound 9, octadecyl-(N,N-dimethyl-piperidinio-4-yl)-phosphate, reference compound], in series [1], the “cytotoxicity (in words)” value is recorded as “less cytotoxic; also recorded: low toxicity” and the CD50 amounted to 76.7 µM. In series [2] (Rattus norvegicus), the IC50 turned out to be 2.8 µM. Moreover, the inhibition at 10 µM in series [2] (setting [4]) worked out at 85%. The inhibition at 25 µM in series [2] (setting [5]) was over 75%.

Consider `CCCCCCCCCCCCCCCCOC[C@H](COP(=O)([O-])OCC[N+](C)(C)C)SC(C)=O` [Compound 12, 2-thio PAF C-16], for which the CD50 in series [1] came out at 86.5 µM. In addition, the inhibition at 25 µM in series [2] (setting [6]) came to 41%.

In turn, `CCCCCCCCCCCCCCCCOC[C@@H](O)COP(=O)([O-])OCC[N+](C)(C)C` [Compound 13, 1-hexadecyl-sn-glycero-3-phosphocholine 3-sn-lysophosphatidylcholine] showed a CD50 in series [1] of 58.8 µM. For the same compound, the inhibition at 25 µM in series [2] (setting [6]) amounted to 41%.

Consider `CCCCCCCCCCCCCCCCOC[C@H](COP(=O)([O-])OCC[N+](C)(C)C)OC(C)=O` [Compound 14, 1-hexadecyl-2-acetyl-sn-glycero-3-phosphocholine], for which, in series [2] (setting [6]), the inhibition at 25 µM is 42%. In series [3], the CD50 came to 57.7 µM.

In series [1], `CCCCCCCCCCCCCCCCOC[C@H](COP(=O)([O-])OCCCCCC[N+](C)(C)C)OC(C)=O` [Compound 16, 1-O-hexadecyl-2-acetyl-sn-glycero-3-phospho-(N,N,N-trimethyl)hexanolamine] had a CD50 of 51.3 µM. In series [2] (setting [6]), the inhibition at 25 µM is 45%.

Take `CCCCCCCCCCCCOP(=O)([O-])OCC[N+](C)(C)C` [Compound 17, Dodecylphosphocholine]: the CD50 in series [1] is over 100 µM. Besides, in series [2] (Rattus norvegicus), the IC50 came out at 7.1 µM. Also, the inhibition at 25 µM in series [2] (setting [6]) was 76%; in series [2] (setting [5]) it was over 75%.

Consider `CCCCCCCCCCCCCCCC(=O)OC[C@H](O)COP(=O)([O-])OCC[N+](C)(C)C` [Compound 20, 1-palmitoyl-2-hydroxy-sn-glycero-3-phosphocholine], for which the inhibition at 25 µM in series [2] (setting [6]) was 26%. In series [3], this compound showed a CD50 of 70.3 µM.

The compound `CCCCCCCCCCCCCCCCOC[C@H](CO)OC` [Compound 22, 1-O-hexa-decyl-2-O-methyl-sn-glycerol, reference compound] came in with a CD50 in series [1] of over 100 µM. Moreover, in series [2], the “activity in the mast cell degranulation assay (in words)” value (“activity” for short) was “poor results”. Moreover, the inhibition at 100 µM in series [2] (Rattus norvegicus, RBL-2H3, 100 μM, read-out: maximum inhibition (concentration used)) was determined as 15%.

`CCCCCCCCCCCCCCCCCCOP(=O)([O-])OCC[N+](C)(C)C` [Compound 23, octadecylphosphocholine (C18:0)] returned a CD50 in series [1] of over 50 µM. Also, the IC50 in series [2] (Rattus norvegicus) came to 2.6 µM. Besides, the inhibition at 10 µM in series [2] (setting [4]) stood at 82%. Further, the inhibition at 25 µM in series [2] (setting [5]) was over 75%.

In the case of `CCCCCCCC/C=C/CCCCCCCCOP(=O)([O-])OCC[N+](C)(C)C` [Compound 24, 1-elaidylphosphocholine (C18:1, trans)], the CD50 in series [1] amounted to 59.6 µM. Also, in series [2] (Rattus norvegicus), the IC50 amounted to 2.9 µM. Further, in series [2] (setting [4]), the inhibition at 10 µM is 92%. In series [2] (setting [5]), the inhibition at 25 µM was over 75%.

Regarding `CCCCCCCCCCCCCCCCOCC(COP(=O)([O-])OCC[N+](C)(C)C)OC(C)=O` (centres unmarked) [Compound 25, 3-O-hexadecyl-2-acetyl-sn-glycero-1-posphocholine], in series [2] (Rattus norvegicus), the IC50 came out at 3 µM. In addition, the inhibition at 10 µM in series [2] (setting [4]) worked out at 82%. The inhibition at 25 µM in series [2] (setting [5]) was over 75%.

`CCCCCCCCCCCCCCCCOCCCOP(=O)([O-])OCC[N+](C)(C)C` [Compound 26, 1-O-hexadecyl-propanediol-3-phosphocholine]: the IC50 in series [2] (Rattus norvegicus) turned out to be 3.1 µM. Besides, in series [2] (setting [4]), the inhibition at 10 µM was 90%. The inhibition at 25 µM in series [2] (setting [5]) was over 75%.

As for `CCCCCCCCCCCCCCCCCCOCC(C)(C)COP(=O)([O-])OCC[N+](C)(C)C` [Compound 27, 1-O-octadecyl-(2,2-dimethyl)-propanediol-3-phosphocholine], in series [2] (Rattus norvegicus), the IC50 was 8 µM. Also, the inhibition at 25 µM in series [2] (setting [6]) was 85%; in series [2] (setting [5]), over 75%.

On to `CCCCCCCCCCCCCCCCOC[C@H](COP(=O)([O-])OCC[N+](C)(C)C)OC(=O)CC` [Compound 28, 1-O-hexadecyl-2-propionyl-sn-glycero-3-phosphocholine], for which, in series [2] (Rattus norvegicus), the IC50 turned out to be 13.1 µM. In addition, in series [2] (setting [6]), the inhibition at 25 µM amounted to 64%.

As to `O=C(O)c1cc(=O)c2c(OCC(O)COc3cccc4oc(C(=O)O)cc(=O)c34)cccc2o1` [cromogylcic acid, reference compound], the “activity” value in series [2] is given as “no or only low activity”.

With `CN1CCC(=C2c3ccccc3CC(=O)c3sccc32)CC1` [ketotifen fumarate, reference compound], the “activity” value in series [2] is given as “no or only low activity”.
